Where two headings read alike, the source gives them in different places.

In data set [1] the target is T1, xanthine oxidase from bovine milk (Bos taurus, UniProt P80457).
T1 construct: xanthine oxidase from bovine milk; purchased Sigma-Aldrich Chemical Co., St. Louis, MO; host or cells: bovine milk (natural source)
Kind of data set: Inhibition of xanthine oxidase (XO) activity, uric acid formed from xanthine, absorbance at 290 nm. It counts as biochemical. As to conditions: for inhibition at 45 µM: read-out: Xanthine oxidase inhibition (XOI %); for IC50: value of x when y = 50 from straight line equation of XOI % vs concentration.
Experimental: Inhibition of XO activity was assessed by measuring the uric acid formed from the xanthine substrate. Solutions of xanthine in various concentrations in a 0.1 M, pH 7.4 phosphate buffer were incubated together with 100 μl of ethanol and the same volume of samples of the solutions with different concentrations (45 and 90 μM in a 0.1 M, pH 7.4 phosphate buffer). The samples were pre-incubated at 37 °C for 10 min. The XO solution (0.3 ml, 0.1 U/ml) was added to the reaction mixture and the flasks were incubated at 37 °C for 20 min. The enzymatic reaction was interrupted by adding 25 μl of 3.2% HCl. The absorption of the samples was measured using an ELISA reader Epoch, BioTek (Winooski, VT) at 290 nm. The uric acid production was calculated from the differential absorbance with a blank solution without xanthine oxidase. The control was a solution containing xanthine and XO.
Vmax (maximum reaction rate) and Km (Michaelis–Menten constant, that is the substrate concentration at 1/2 the maximum reaction rate) were calculated and the type of inhibition kinetics was identified using the Origin 8.6 program and the rectangular hyperbola model. […] Reaction rate (expressed as uric acid concentration in μmol/min) was obtained from the uric acid standard curve (y = 0.024x − 0.1242, R^2 = 0.9786).

Data set [2] in a line: Partition coefficient determination in octanol/water (k). It counts as physicochemical. Particulars: octan-1-ol/water, 50 μM sample, UHPLC-MS; SD <0.01. Here is the method:
The partition coefficients of the untreated flavonoids in octanol/water (k) were analysed to determine their degrees of lipophilicity. In test tubes, 2.0 ml of a solution of the sample with a concentration of 50 μM were added to 2.0 ml of octanol saturated with water. The mixture was shaken for 1 min and then centrifuged for 15 min at 3000 rpm. […] The partition coefficient was obtained using the equation: k=Co/Ca×r; where Co = test compound concentration in octanol, Ca = test compound concentration in aqueous solution, r = ratio of the volumes of the oily and the aqueous phases.

Data set [3] has as its system XO. More on the design: method as in PMID 12231379. Particulars: XO inhibition; cited from earlier work.
Data set [4] relates to XO. More on the design: method as in earlier work. Particulars: XO inhibition; cited from earlier work.
Setting [5] is: inhibitor at 45 μM, 250 μM of xanthine substrate, derivatives after 12 h of enzymatic acylation.

T1 sequence (P80457 whole entry): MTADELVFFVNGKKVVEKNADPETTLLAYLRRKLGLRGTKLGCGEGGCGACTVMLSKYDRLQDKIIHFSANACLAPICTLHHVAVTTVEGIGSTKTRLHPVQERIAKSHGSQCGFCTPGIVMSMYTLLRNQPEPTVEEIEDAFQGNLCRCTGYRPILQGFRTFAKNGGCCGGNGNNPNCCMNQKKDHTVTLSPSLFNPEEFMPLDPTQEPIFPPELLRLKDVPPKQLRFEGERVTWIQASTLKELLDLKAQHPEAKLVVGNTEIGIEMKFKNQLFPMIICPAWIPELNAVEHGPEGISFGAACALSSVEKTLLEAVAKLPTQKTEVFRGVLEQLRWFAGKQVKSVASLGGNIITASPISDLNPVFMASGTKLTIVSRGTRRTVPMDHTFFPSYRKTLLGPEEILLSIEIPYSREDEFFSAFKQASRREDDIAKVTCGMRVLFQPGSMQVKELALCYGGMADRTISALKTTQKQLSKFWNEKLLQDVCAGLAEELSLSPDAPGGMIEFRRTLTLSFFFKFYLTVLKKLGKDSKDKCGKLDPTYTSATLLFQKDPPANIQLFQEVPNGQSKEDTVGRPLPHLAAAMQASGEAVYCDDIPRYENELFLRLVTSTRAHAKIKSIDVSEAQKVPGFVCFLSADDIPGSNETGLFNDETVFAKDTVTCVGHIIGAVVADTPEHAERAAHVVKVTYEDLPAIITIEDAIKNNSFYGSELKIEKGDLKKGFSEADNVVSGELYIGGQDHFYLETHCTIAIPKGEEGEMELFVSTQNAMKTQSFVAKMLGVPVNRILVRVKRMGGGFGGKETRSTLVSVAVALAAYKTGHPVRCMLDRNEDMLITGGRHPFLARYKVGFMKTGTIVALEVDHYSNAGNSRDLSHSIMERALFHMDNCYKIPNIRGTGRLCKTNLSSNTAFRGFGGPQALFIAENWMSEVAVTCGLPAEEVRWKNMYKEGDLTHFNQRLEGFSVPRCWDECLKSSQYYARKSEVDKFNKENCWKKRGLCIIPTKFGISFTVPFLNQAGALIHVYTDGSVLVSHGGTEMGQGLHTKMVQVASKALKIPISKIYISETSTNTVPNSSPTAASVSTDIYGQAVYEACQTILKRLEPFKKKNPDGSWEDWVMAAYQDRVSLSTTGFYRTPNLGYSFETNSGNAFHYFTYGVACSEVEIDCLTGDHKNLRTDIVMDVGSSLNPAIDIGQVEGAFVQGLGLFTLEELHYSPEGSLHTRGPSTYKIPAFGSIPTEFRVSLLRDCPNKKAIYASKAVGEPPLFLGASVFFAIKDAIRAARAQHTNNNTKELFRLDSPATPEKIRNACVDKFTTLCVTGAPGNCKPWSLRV

On to `Oc1ncnc2[nH]ncc12` [Allopurinol, allopurinol], for which the inhibition at 45 µM in data set [1] is 89.7%.
Turning to `COc1ccc([C@@H]2CC(=O)c3c(O)cc(O[C@@H]4O[C@H](CO[C@@H]5O[C@@H](C)[C@H](O)[C@@H](O)[C@H]5O)[C@@H](O)[C@H](O)[C@H]4O)cc3O2)cc1O` [Hesperidin, hesperidin], in data set [1] (setting [5]), the “Xanthine oxidase inhibition (XOI %)” value amounted to 8.24 ± 2.10%. In data set [1], the IC50 turned out to be 333 µM. Also, in data set [2], the “Partition coefficient (k)” value was 0.42.
In the case of `C[C@@H]1O[C@@H](O[C@H]2[C@H](Oc3cc(O)c4c(c3)O[C@H](c3ccc(O)cc3)CC4=O)O[C@H](CO)[C@@H](O)[C@@H]2O)[C@H](O)[C@H](O)[C@H]1O` [Naringin, naringin], the inhibition at 45 µM in data set [1] (setting [5]) was 14.8 ± 4.8%. In data set [1], this compound had a concentration for half-maximal inhibition (IC50) of 206 µM. Besides, in data set [2], the “Partition coefficient (k)” value is reported as 0.37.
In the case of `O=c1c(O)c(-c2ccc(O)c(O)c2)oc2cc(O)cc(O)c12` [Quercetin, quercetin], the “Partition coefficient (k)” value in data set [2] was found to be 1.46.
The same measure, in the same setting: the same measure for `C[C@@H]1O[C@@H](OC[C@H]2O[C@@H](Oc3c(-c4ccc(O)c(O)c4)oc4cc(O)cc(O)c4c3=O)[C@H](O)[C@@H](O)[C@@H]2O)[C@H](O)[C@H](O)[C@H]1O` [Rutin, rutin]: 0.48.
Turning to `O=c1c(O)c(-c2ccc(O)cc2)oc2cc(O)cc(O)c12` [kaempferol], the IC50 in the data set with XO [3] is 2.5 µM.
`O=c1c(O)c(-c2ccc(O)cc2O)oc2cc(O)cc(O)c12` [morin]: the IC50 in the data set on XO [3] was 40 µM.
For Hesperidin decanoate, the “Xanthine oxidase inhibition (XOI %)” value in data set [1] (setting [5]) amounted to 16.42 ± 3.21%. For the same compound, the IC50 in data set [1] stood at 199 µM. In data set [2], the “Partition coefficient (k)” value is given as 0.83.
Regarding Naringin decanoate, in data set [1] (setting [5]), the “Xanthine oxidase inhibition (XOI %)” value is 25.61 ± 2.85%. In addition, it took 118 µM to reach half-maximal inhibition in data set [1] (IC50). In addition, the “Partition coefficient (k)” value in data set [2] came out at 0.86.
In the case of Naringin octanoate, in data set [1] (setting [5]), the “Xanthine oxidase inhibition (XOI %)” value was 28.80 ± 5.76%. The same compound registered a concentration for half-maximal inhibition (IC50) in data set [1] of 110 µM.
As for isoquercitrin butyrate, the IC50 with XO [4] was 144 µM.
As for isoquercitrin oleate, in the data set on XO [4], the 50% inhibitory concentration (IC50) was 27 µM.
Take isoquercitrin stearate: the 50% inhibitory concentration (IC50) in the data set with XO [4] was 61 µM.

The values are drawn from article PMC6445226, “Kinetic study on the inhibition of xanthine oxidase by acylated derivatives of flavonoids synthesised enzymatically” (Journal of Enzyme Inhibition and Medicinal Chemistry, 2017).
